Data: patent US12187728B2 (Raze Therapeutics, Inc., priority 2015, dated 2025)

Target: T1, Human MTHFD2 (Homo sapiens, UniProt P13995)
T1 construct: residues 36-350 in Uniport ID P13995; His6 (N); made in house; host or cells: E. coli
T1 sequence (P13995 36-350): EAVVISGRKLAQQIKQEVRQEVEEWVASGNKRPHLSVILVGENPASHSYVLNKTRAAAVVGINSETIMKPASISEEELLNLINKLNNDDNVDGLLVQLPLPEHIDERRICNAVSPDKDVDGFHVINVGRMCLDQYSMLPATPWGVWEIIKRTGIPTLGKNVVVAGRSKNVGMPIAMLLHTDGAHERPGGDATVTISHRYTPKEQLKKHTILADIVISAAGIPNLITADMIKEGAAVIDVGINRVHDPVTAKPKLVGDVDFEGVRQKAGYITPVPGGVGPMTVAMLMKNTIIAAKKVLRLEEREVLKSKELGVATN
Assay: MTHFD2 Activity Assay (dehydrogenase activity, diaphorase/resazurin coupled fluorescence)
Type: biochemical
Details: inhibitory activity (IC50 and/or binding constant); 0.2 nM MTHFD2, 11 concentrations
In short: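 Steps: compound + 0.2 nM enzyme, 15 min, pH 8.0 Hepes buffer; add 70 μM CH2-THF, 1 mM NAD+, 100 μM resazurin, diaphorase; 30 min; quench with EDTA; read fluorescence. Data normalized to DMSO (100%) and no-enzyme (0%) wells.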

Row | SMILES | IC50 [nM]
1 | C[C@@H](O)CNc1nc2c(c(=O)n(Cc3ccc(Cl)c(F)c3)c(=O)n2C)n1C [Example 24, 1-[(4-chloro-3-fluorophenyl)methyl]-8-{[(2R)-2-hydroxypropyl]amino}-3,7-dimethyl-2,3,6,7-tetrahydro-1H-purine-2,6-dione] | 5000 to 10000
2 | COC(=O)c1ccc(Nc2nc3c(c(=O)n(Cc4ccc(Cl)c(Cl)c4)c(=O)n3C)n2C)cc1 [Example 154, Methyl 4-(1-(3,4-dichlorobenzyl)-3,7-dimethyl-2,6-dioxo-2,3,6,7-tetrahydro-1H-purin-8-ylamino)benzoate] | 1000 to 5000
3 | Cn1c(NCCCO)nc2ncn(Cc3ccc(Cl)c(Cl)c3)c(=O)c21 [Example 167, 1-[(3,4-dichlorophenyl)methyl]-8-[(3-hydroxypropyl)amino]-7-methyl-6,7-dihydro-1H-purin-6-one] | > 10000
4 | Cn1c(Nc2ccncc2)nc2c1c(=O)n(Cc1cc3ccncc3[nH]1)c(=O)n2C [Example 393, 1-((1H-pyrrolo[2,3-c]pyridin-2-yl)methyl)-3,7-dimethyl-8-(pyridin-4-ylamino)-1H-purine-2,6(3H,7H)-dione] | 5000 to 10000
5 | Cn1c(N[C@@H]2CC[C@@H](O)C2)nc2c1c(=O)n(Cc1ccc(C#N)c(Cl)c1)c(=O)n2C (racemic) [Example 247, (±)-2-chloro-4-((8-((trans)-3-hydroxycyclopentylamino)-3,7-dimethyl-2,6-dioxo-2,3,6,7-tetrahydro-1H-purin-1-yl)methyl)benzonitrile] | 1000 to 5000
6 | Cn1c(=O)n(Cc2ccc(Cl)c(Cl)c2)c(=O)c2c1nc(NC1CCCC(C(=O)O)C1)n2CC(=O)O (stereo not shown) [Example 307, 3-(7-(carboxymethyl)-1-(3,4-dichlorobenzyl)-3-methyl-2,6-dioxo-2,3,6,7-tetrahydro-1H-purin-8-ylamino)cyclohexanecarboxylic acid] | 1000 to 5000
7 | Cn1c(Nc2ccncc2)nc2c1c(=O)n(Cc1cc3ccc(Cl)cc3[nH]1)c(=O)n2C [Example 312, 1-((6-chloro-1H-indol-2-yl)methyl)-3,7-dimethyl-8-(pyridin-4-ylamino)-1H-purine-2,6(3H,7H)-dione] | 10 to 1000
8 | Cn1c(Nc2ccnc([C@H]3C[C@H]3C(=O)O)c2)nc2c1c(=O)n(Cc1ccc(Cl)c(Cl)c1)c(=O)n2C (racemic) [Example 332, (±)-cis-2-(4-((1-(3,4-dichlorobenzyl)-3,7-dimethyl-2,6-dioxo-2,3,6,7-tetrahydro-1H-purin-8-yl)amino)pyridin-2-yl)cyclopropanecarboxylic acid] | 10 to 1000
9 | Cn1c(N[C@H]2CCC[C@H](O)C2)nc2c1c(=O)n(Cc1ccc(Cl)c(Cl)c1)c(=O)n2C (single isomer, unassigned) [Example 81, 1-(3,4-dichlorobenzyl)-8-((1S,3S)-3-hydroxycyclohexylamino)-3,7-dimethyl-1H-purine-2,6(3H,7H)-dione or 1-(3,4-dichlorobenzyl)-8-((1R,3R)-3-hydroxycyclohexylamino)-3,7-dimethyl-1H-purine-2,6(3H,7H)-dione] | 10 to 1000
10 | C[C@@H](O)CNc1nc2c(c(=O)n(Cc3ccc(C(F)(F)F)cc3)c(=O)n2C)n1C [Example 57, 8-{[(2R)-2-hydroxypropyl]amino}-3,7-dimethyl-1-{[4-(trifluoromethyl)phenyl]methyl}-2,3,6,7-tetrahydro-1H-purine-2,6-dione] | 5000 to 10000
11 | Cn1c(Nc2ccncc2)nc2c1c(=O)n(Cc1ccc3ccccc3c1)c(=O)n2C [Example 349, 3,7-dimethyl-1-(naphthalen-2-ylmethyl)-8-(pyridin-4-ylamino)-1H-purine-2,6(3H,7H)-dione] | 10 to 1000
12 | Cn1c(Cn2c(=O)c3c(nc(N[C@H]4CC[C@@H](O)C4)n3C)n(C)c2=O)cc2ccccc21 (racemic) [Example 179, (±)-8-((cis)-3-hydroxycyclopentylamino)-3,7-dimethyl-1-((1-methyl-1H-indol-2-yl)methyl)-1H-purine-2,6(3H,7H)-dione] | 10 to 1000
13 | Cn1c(Nc2cccc([C@@H]3C[C@H]3C(=O)O)n2)nc2c1c(=O)n(Cc1cc3c(Cl)cccc3[nH]1)c(=O)n2C (racemic) [Example 315, (±)-trans-2-[6-[[1-[(4-chloro-1H-indol-2-yl)methyl]-3,7-dimethyl-2,6-dioxo-purin-8-yl]amino]-2-pyridyl]cyclopropanecarboxylic acid] | 10 to 1000
14 | Cn1c(NC(=O)C(F)(F)F)nc2c1c(=O)n(Cc1cc3c(Cl)cccc3[nH]1)c(=O)n2C [Example 422, N-[1-[(4-chloro-1H-indol-2-yl)methyl]-3,7-dimethyl-2,6-dioxo-purin-8-yl]-2,2,2-trifluoro-acetamide] | 10 to 1000
15 | Cn1c(Nc2ccncc2)nc2c1c(=O)n(Cc1cc3cccc(F)c3[nH]1)c(=O)n2C [Example 366, 1-[(7-fluoro-1H-indol-2-yl)methyl]-3,7-dimethyl-8-(4-pyridylamino)purine-2,6-dione] | 10 to 1000
16 | Cn1c(=O)n(Cc2ccc(Cl)c(Cl)c2)c(=O)c2[nH]cnc21 [Example 251, 1-(3,4-dichlorobenzyl)-3-methyl-1H-purine-2,6(3H,7H)-dione] | > 10000
17 | Cn1c(NC2CCCC(C(=O)O)C2)nc2c1c(=O)n(Cc1ccc(C(F)(F)F)cc1)c(=O)n2C (racemic) [Example 115, (±)-3-(3,7-dimethyl-2,6-dioxo-1-(4-(trifluoromethyl)benzyl)-2,3,6,7-tetrahydro-1H-purin-8-ylamino)cyclohexanecarboxylic acid] | 1000 to 5000
18 | Cn1c([C@@H](N)Cc2ccncc2)nc2c1c(=O)n(Cc1cc3c(Cl)cccc3[nH]1)c(=O)n2C [Example 449, (S)-8-(1-amino-2-(pyridin-4-yl)ethyl)-1-((4-chloro-1H-indol-2-yl)methyl)-3,7-dimethyl-1H-purine-2,6(3H,7H)-dione] | 10 to 1000

Continued, values first:

Row | IC50 [nM] | SMILES
19 | 10 to 1000 | Cn1c(Nc2ccncn2)nc2c1c(=O)n(Cc1cc3ccccc3[nH]1)c(=O)n2C [Example 216, 1-((1H-indol-2-yl)methyl)-3,7-dimethyl-8-(pyrimidin-4-ylamino)-1H-purine-2,6(3H,7H)-dione]
20 | 10 to 1000 | Cn1c(N2CCC(N)C2)nc2c1c(=O)n(Cc1cc3c(Cl)cccc3[nH]1)c(=O)n2C (stereo not shown) [Example 376]
21 | 10 to 1000 | Cn1c(N[C@H]2CCC[C@@H]2O)nc2c1c(=O)n(Cc1ccc(Cl)c(Cl)c1)c(=O)n2C [Example 92, 1-[(3,4-dichlorophenyl)methyl]-8-{[(1S,2S)-2-hydroxycyclopentyl]amino}-3,7-dimethyl-2,3,6,7-tetrahydro-1H-purine-2,6-dione]
22 | 10 to 1000 | C[C@H](CCO)Nc1nc2c(c(=O)n(Cc3ccc(Cl)c(Cl)c3)c(=O)n2C)n1C [Example 27, 1-[(3,4-dichlorophenyl)methyl]-8-{[(2R)-4-hydroxybutan-2-yl]amino}-3,7-dimethyl-2,3,6,7-tetrahydro-1H-purine-2,6-dione]
23 | 10 to 1000 | Cn1c(N[C@H]2CCC[C@H]2O)nc2c1c(=O)n(Cc1cc3c(Cl)cccc3[nH]1)c(=O)n2C [Example 347, 1-((4-chloro-1H-indol-2-yl)methyl)-8-((1S,2R)-2-hydroxycyclopentylamino)-3,7-dimethyl-1H-purine-2,6(3H,7H)-dione]
24 | 10 to 1000 | Cn1c([C@H](N)Cc2cccnc2)nc2c1c(=O)n(Cc1cc3c(Cl)cccc3[nH]1)c(=O)n2C [Example 470, (R)-8-(1-amino-2-(pyridin-3-yl)ethyl)-1-((4-chloro-1H-indol-2-yl)methyl)-3,7-dimethyl-1H-purine-2,6(3H,7H)-dione]
25 | 10 to 1000 | Cn1c(Nc2ccc3c(c2)C(CC(=O)O)CC3)nc2c1c(=O)n(Cc1ccc(Cl)c(Cl)c1)c(=O)n2C (stereo not shown) [Example 314, 2-(6-((1-(3,4-dichlorobenzyl)-3,7-dimethyl-2,6-dioxo-2,3,6,7-tetrahydro-1H-purin-8-yl)amino)-2,3-dihydro-1H-inden-1-yl)acetic acid]
26 | 10 to 1000 | Cn1c(C2CCNC2)nc2c1c(=O)n(Cc1cc3c(Cl)cccc3[nH]1)c(=O)n2C (stereo not shown) [Example 425, 1-[(4-chloro-1H-indol-2-yl)methyl]-3,7-dimethyl-8-pyrrolidin-3-yl-purine-2,6-dione]
27 | 10 to 1000 | Cn1c(NC2CCCC(C(=O)O)C2)nc2c1c(=O)n(Cc1cc3c(Cl)cccc3[nH]1)c(=O)n2C (stereo not shown) [Example 308, 3-(1-((4-chloro-1H-indol-2-yl)methyl)-3,7-dimethyl-2,6-dioxo-2,3,6,7-tetrahydro-1H-purin-8-ylamino)cyclohexanecarboxylic acid]
28 | 10 to 1000 | Cn1c(-n2cc(N)cn2)nc2c1c(=O)n(Cc1ccc(Cl)c(Cl)c1)c(=O)n2C [Example 136]
29 | 10 to 1000 | Cn1c(C(N)C2CCCC2)nc2c1c(=O)n(Cc1cc3c(Cl)cccc3[nH]1)c(=O)n2C (stereo not shown) [Example 464, 8-(amino(cyclopentyl)methyl)-1-((4-chloro-1H-indol-2-yl)methyl)-3,7-dimethyl-3,7-dihydro-1H-purine-2,6-dione]
30 | 10 to 1000 | Cn1c(Nc2cccc([C@H]3C[C@@H]3C(=O)O)n2)nc2c1c(=O)n(Cc1ccc(Cl)c(Cl)c1)c(=O)n2C (racemic) [Example 299, (±)-trans-2-(6-((1-(3,4-dichlorobenzyl)-3,7-dimethyl-2,6-dioxo-2,3,6,7-tetrahydro-1H-purin-8-yl)amino)pyridin-2-yl)cyclopropanecarboxylic acid]
31 | 10 to 1000 | CNC(C)c1nc2c(c(=O)n(Cc3cc4c(Cl)cccc4[nH]3)c(=O)n2C)n1C (stereo not shown) [Example 438, 1-[(4-chloro-1H-indol-2-yl)methyl]-3,7-dimethyl-8-[1-(methylamino)ethyl]purine-2,6-dione]
